From patent US12544547B2, “Gelatin-based microneedle patch for minimally-invasive extraction of bodily fluids” (THE REGENTS OF THE UNIVERSITY OF CALIFORNIA, priority 2020, dated 2026)
Like-named read-outs stand apart in the source and are kept apart here.

Key:
[1] = In vivo vancomycin detection in ISF versus plasma after intravenous vancomycin; design: species or system Wistar rats; conditions: Wistar, rat, 1 mg/rat; for concentration at 5 min: 5 min after intravenous injection; for concentration at 30 min / concentration at 60 min: intravenous; for concentration at 30 min: 30 min following injection; for concentration at 60 min: 60 min after injection
Method: In vivo collection of ISF and glucose and vancomycin detection: All animal experiments were approved by the Animal Care and Use Committee of University of California, Los Angeles, and procedures for animals were performed in accordance with the relevant guidelines and regulations. Wistar rats (4-week-old, approximately 70-80 g) were anesthetized with 50 mg/kg sodium pentobarbital. The dorsal hair of each rat was shaved. After the initial mass of the GelMA patch 10 was weighed, it was applied to the dorsal skin of the rat using the thumb and index finger. Gauze was used to fix the patches 10 on the skin. ten minutes later, the patch 10 was removed and the final mass was recorded. To quantify the concentration of the delivered molecules, the wet patch 10 was transferred into a centrifuge tube with 200 μL of DI water. After centrifugation at 12000 rpm for 10 min, the solution in the tube was transferred to be tested. In addition, blood samples were also collected from the tail vein for glucose detection and the plasma was isolated via centrifugation for vancomycin detection. For histopathology, the skin was harvested and fixed in 10% neutral buffered formalin (BBC Biochemical, WA, USA), processed by a standard method, and embedded in paraffin. 4 μm in thickness tissue sections were stained with hematoxylin and eosin (H&E, BBC Biochemical) to confirm that GelMA microneedles 14 effectively penetrate the skin.
In the glucose detection experiment, the rats were intravenously injected with 1 mL of 0.2 g/mL glucose in saline. The glucose concentrations in ISF were tested using Glucose Assay Kit (Sigma) and the glucose levels in blood were tested using a glucometer (Clarity Diagnostics, US). In the vancomycin detection experiment, the rats were intravenously injected with 1 mL vancomycin at a concentration of 1 mg/mL in saline. The vancomycin concentration in ISF and plasma samples was also quantified by LC-MS/MS analysis (mentioned above).

[2] = design: species or system Wistar rats; conditions: rat, in vivo
[3] = interstitial fluid (ISF), read-out: vancomycin concentration in ISF
[4] = plasma, read-out: vancomycin concentration in plasma

Row | skin recovery time after removing the patch [2] [min] | Compound | concentration at 5 min [1, 3] [ng/mL] | concentration at 30 min [1, 3] [ng/mL] | concentration at 60 min [1, 3] [ng/mL] | concentration at 5 min [1, 4] [ng/mL] | concentration at 30 min [1, 4] [ng/mL] | concentration at 60 min [1, 4] [ng/mL]
1 | – | CN[C@H](CC(C)C)C(=O)N[C@H]1C(=O)N[C@@H](CC(N)=O)C(=O)N[C@H]2C(=O)N[C@H]3C(=O)N[C@H](C(=O)N[C@H](C(=O)O)c4cc(O)cc(O)c4-c4cc3ccc4O)[C@H](O)c3ccc(c(Cl)c3)Oc3cc2cc(c3O[C@@H]2O[C@H](CO)[C@@H](O)[C@H](O)[C@H]2O[C@H]2C[C@](C)(N)[C@H](O)[C@H](C)O2)Oc2ccc(cc2Cl)[C@H]1O [vancomycin] | 5930 ± 180 | ~6500 | ~4000 | 8270 ± 130 | ~6500 | ~4000
2 | ≤ 20 | gelatin methacryloyl (GelMA) [GelMA microneedle patch] | – | – | – | – | – | –
